Here are results for one compound from article PMC10518255, “A first-in-class pan-lysyl oxidase inhibitor impairs stromal remodeling and enhances gemcitabine response and survival in pancreatic cancer” (Nature Cancer, 2023).

“And” between values parts separate entries of the source, which are not always exact repeats. Equal values may be shown once. Where only a bound is given, the exact number is not on record here.

A short description of one data set: Hepatocyte stability. As to conditions: hepatocytes; In vitro (human). The format is in vitro ADME.
The subject of data set [1] is Lysyl oxidase family activity in aorta. Put plainly: Target engagement: lysyl oxidase family activity in freshly excised aorta, fluorometric activity assay (Fig. 2h). It counts as in vivo, rat. Details: Lysyl oxidase family activity in freshly excised aorta: unit not given here. The conditions noted are these: for Lysyl oxidase family activity in freshly excised aorta: single 30 mg/kg oral, individual samples, 30 mg/kg. How it is done:
Data are presented as mean ± s.d. Two-tailed P value determined by unpaired, nonparametric t-test with a Mann–Whitney U-test correction (comparison to PBS control). h, Lysyl oxidase family activity measured in freshly excised aorta determined by fluorometric activity assay n = 19 (PBS), 5 (4–120 h) biological independent samples. Data presented as mean ± s.d. Two-tailed P value determined by unpaired, nonparametric t-test with a Mann–Whitney U-test correction (comparison to PBS control).
To confirm that PXS-5505 inhibits lysyl oxidase family enzymatic activity in tissues, target engagement experiments were performed following a single oral dose (30 mg kg^−1) in rats. […] Lysyl oxidase family activity was measured in two tissues; aorta (core tissue) and ear (peripheral tissue).

Another data set concerns F4/80. Kind of data set: Immunohistochemistry of end-point KPC tumors: macrophage infiltration. The format is in vivo, mouse. The conditions noted are these: KPC tumours at endpoint; individual replicate values (Extended Data 6G). How it is done: (§1) All tissues or matrices, including patient TMAs, were fixed in 10% buffered formalin and embedded in paraffin. The 4-μm sections of samples were deparaffinized with xylene and rehydrated in graded ethanol washes. For immunohistochemistry, Bond Dewax Solution (AR9222) was used. Antigen retrieval was performed using Bond RX H2(30) protocol: HIER 30 min ER1 (citrate pH 6) OR ER2 (EDTA pH 9) at 100 °C. Slides were quenched in BOND Polymer Refine Detection (Leica Biosystems DS9800). […] Slides were digitized on an Aperio slide scanner and representative areas per tumor acquired and analyzed by researchers blinded to the conditions of the experiment.
(§2) Extended Data Fig. 6 PXS-5505 in combination with gemcitabine in a KPC model. a. Quantification of proliferating cells (Ki67 positive nuclear staining) in KPC tumors at end point, treated as indicated. 5 fields of view (500 μm × 500 μm) per mouse and 10 mice per cohort were scored. […] Quantification of percent coverage of αSMA positive staining in KPC tumors at end point, treated as indicated. 3 fields of view (1000 μm × 1000 μm) per mouse and 10 mice per cohort were scored. […] Quantification of percent coverage of PDGFR-ß positive staining in KPC tumors at end point, treated as indicated. 3 fields of view (1000 μm × 1000 μm) per mouse and 10 mice per cohort were scored. […] 3 fields of view (500 μm × 500 μm) per mouse and 10 mice per cohort were scored. […]

The subject of the next data set is MPO. Put plainly: Immunohistochemistry of end-point KPC tumors: myeloperoxidase cell infiltration. It counts as in vivo, mouse. As to conditions: KPC tumours at endpoint; individual replicate values (Extended Data 6H). How it is done:
as §1, §2

By amount remaining is commonly meant what is left of the initial amount, in per cent. Turning to `Cl.Cl.NC/C=C(\F)CS(=O)(=O)c1cccc2cccnc12.O` [PXS-5505, (Z)-3-fluoro-4-(quinolin-8-ylsulfonyl)but-2-en-1-amine dihydrochloride monohydrate], in the data set “Hepatocyte stability”, the share remaining at 1 h amounted to 90%. For the same compound, in data set [1] (rats, single 30 mg kg−1 oral, 24 h after dosing), the “recovery of lysyl oxidase family activity in the aorta, of initial activity” value was “approximately 50%”. The “Lysyl oxidase family activity in freshly excised aorta” value was 15.4162 and 30.1157 and 25.1081 and 16.4125 and 13.2925 in data set [1] (rats, 4 h); 54.6033 and 26.1568 and 51.6931 and 36.2595 and 23.1592 in data set [1] (rats, 24 h); 62.6086 and 39.9999 and 48.7392 and 69.3553 and 56.8756 in data set [1] (rats, 48 h); 94.5071 and 44.5094 and 104.61 and 70.2729 and 55.285 in data set [1] (rats, 120 h). The “calculated block of all lysyl oxidase family activity” value in data set [1] (single daily oral dose of 30 mg kg−1, over a 24-h period) is on record as over 70%. For the same compound, the “macrophage infiltration (F4/80 positive staining)” value with F4/80 is 5 and 7. For the same compound, the “number of myeloperoxidase (MPO+) cell infiltration” value in the data set with MPO stood at 11.
